Measurements as given in patent publication US10702706B2, “Apparatus, system, and method for generating photo-biologic minimum biofilm inhibitory concentration of infrared light” (NOMIR MEDICAL TECHNOLOGIES, INC., priority 2013, dated 2020).
Where two headings read alike, the source gives them in different places.

What was measured:
MRSA [1] = details: cited from earlier work
MRSA [2] = details: of 38 patients, topical mupirocin; cited from earlier work
MRSA [3] = assay: In vitro biofilm formation by biofilm producing MRSA strains challenged with Mupirocin, with or without NIMELS infrared light; type: cell-based, methicillin resistant Staphylococcus aureus
Source text: The applicant tested the effect in vitro against MRSA with the topical drug Mupirocin.
Accordingly, the PMBIC for MRSA challenged with Mupirocin was established using a straightforward testing protocol.

S. aureus = details: cited from earlier work

## C/C(=C\C(=O)OCCCCCCCCC(=O)O)C[C@@H]1OC[C@H](C[C@@H]2O[C@H]2[C@@H](C)[C@H](C)O)[C@@H](O)[C@H]1O [Mupirocin]
MRSA [1]; 17 failed samples that were biofilm producing strains
  MIC: ≤ 2 µg/mL
MRSA [1]; MRSA samples of the 14 patients with successful eradication
  MIC: ≤ 1 µg/mL
MRSA [2]
  patients successfully eradicated of their MRSA: 14
MRSA [3]; drug treatment alone, in vitro, biofilm producing MRSA strain (FIG. 9 left panel)
  prevention of biofilm formation: not effective in preventing biofilm formation
MRSA [3]; sub-lethal NIMELS infrared light doses (870/930 nm, Table I) applied prior to drug, two different samples of MRSA (FIG. 9 right panel, FIG. 10)
  inhibition of biofilm production: did in fact inhibit biofilm production
S. aureus; applied 15 minutes after inoculation (representing planktonic bacteria)
  effect on planktonic bacteria: reduced planktonic bacteria
S. aureus; applied 48 hours after inoculation (representing biofilm bacteria)
  effect on biofilm bacteria: decreased efficacy on S. aureus biofilms
